Experimental data reported in patent US20260315464A1, “COMPOSITIONS, METHODS, AND SYSTEMS FOR MODULATING SPLICING OF MSH3” (REVIR THERAPEUTICS, INC., priority 2023, published 2026).

Tested on: MSH3
Experiment: QPCR assay for levels of MSH3 upon compound treatment in HEK293T or AD293 cells (fold-change of MSH3 transcript, EC50 of MSH3 downregulation; total MSH3 exons 13/14, exons 20/21; Table 8)
Assay type: cell-based
Conditions: for mrna remaining at 1 µM / mrna remaining at 10 µM: Homo sapiens, fold-change of the MSH3 transcript, normalized to GAPDH; for mrna remaining at 1 µM: 1 μM compound; for mrna remaining at 10 µM: 10 μM compound; for EC50: EC50 of MSH3 downregulation, XtalPi
How it was run: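 HEK293T or AD293 cells were treated at 1 μM and […]; RNA-to-cDNA qPCR used TaqMan assays for total MSH3 (exons 13/14, exons 20/21) and poison-exon junctions exon 13/PE14A and exon 20/PE21A. Transcript levels were normalized to GAPDH.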

## Cc1nn(C)nc1-c1cnc2c(n1)C(=O)N(c1ccc(OC3CC(C)(C)NC4(CCC4)C3)nn1)C2 (stereo not shown) [Compound 500, 3-(2,5-dimethyl-2H-1,2,3-triazol-4-yl)-6-(6-((6,6-dimethyl-5-azaspiro[3.5]nonan-8-yl)oxy)pyridazin-3-yl)-6,7-dihydro-5H-pyrrolo[3,4-b]pyrazin-5-one]
  mrna remaining at 1 µM: 101%
  mrna remaining at 10 µM: 22%

## Cn1nc(Cl)c(-c2cnc3c(n2)C(=O)N(c2ccc(O[C@H]4C[C@]5(C)CC[C@](C)(C4)N5)nn2)C3)n1 [Compound 503, 3-(5-chloro-2-methyl-2H-1,2,3-triazol-4-yl)-6-(6-(((1R,3s,5S)-1,5-dimethyl-8-azabicyclo[3.2.1]octan-3-yl)oxy)pyridazin-3-yl)-6,7-dihydro-5H-pyrrolo[3,4-b]pyrazin-5-one]
  mrna remaining at 1 µM: 70%
  mrna remaining at 10 µM: 18%

## Cn1nc(Cl)c(-c2cnc3c(n2)C(=O)N(c2ccc(OC4CCC(C)(C)NC(C)(C)C4)nn2)C3)n1 (stereo not shown) [Compound 509, 3-(5-chloro-2-methyl-2H-1,2,3-triazol-4-yl)-6-(6-((2,2,7,7-tetramethylazepan-4-yl)oxy)pyridazin-3-yl)-6,7-dihydro-5H-pyrrolo[3,4-b]pyrazin-5-one]
  mrna remaining at 1 µM: 117%
  mrna remaining at 10 µM: 62%

## Cc1nn(C)nc1-c1cnc2c(c1)C(=O)N(c1ccc(N3CC4CNC4C3)nn1)C2 (stereo not shown) [Compound 559, 6-(6-(3,6-diazabicyclo[3.2.0]heptan-3-yl)pyridazin-3-yl)-3-(2,5-dimethyl-2H-1,2,3-triazol-4-yl)-6,7-dihydro-5H-pyrrolo[3,4-b]pyridin-5-one]
  mrna remaining at 1 µM: 93%
  mrna remaining at 10 µM: 53%

## Cc1nn(C)nc1-c1cnc2c(c1)C(=O)N(c1ccc(N3CC4CC3CN4)nn1)C2 (stereo not shown) [Compound 560, 6-(6-(2,5-diazabicyclo[2.2.1]heptan-2-yl)pyridazin-3-yl)-3-(2,5-dimethyl-2H-1,2,3-triazol-4-yl)-6,7-dihydro-5H-pyrrolo[3,4-b]pyridin-5-one]
  mrna remaining at 1 µM: 81%
  mrna remaining at 10 µM: 29%

## Cc1nn(C)nc1-c1cnc2c(c1)C(=O)N(c1ccc(N3CC4CCC3CN4)nn1)C2 (stereo not shown) [Compound 563, 6-(6-(2,5-diazabicyclo[2.2.2]octan-2-yl)pyridazin-3-yl)-3-(2,5-dimethyl-2H-1,2,3-triazol-4-yl)-6,7-dihydro-5H-pyrrolo[3,4-b]pyridin-5-one]
  mrna remaining at 1 µM: 104%
  mrna remaining at 10 µM: 35%

## Cc1nn(C)nc1-c1cnc2c(c1)C(=O)N(c1ccc(N3CCC4(CCCN4)C3)nn1)C2 (stereo not shown) [Compound 566, 6-(6-(1,7-diazaspiro[4.4]nonan-7-yl)pyridazin-3-yl)-3-(2,5-dimethyl-2H-1,2,3-triazol-4-yl)-6,7-dihydro-5H-pyrrolo[3,4-b]pyridin-5-one]
  mrna remaining at 1 µM: 133%
  mrna remaining at 10 µM: 60%

## Cc1nn(C)nc1-c1cnc2c(c1)C(=O)N(c1ccc(N3C[C@H]4CC[C@@H](C3)N4)nn1)C2 [Compound 568, 6-(6-((1R,5S)-3,8-diazabicyclo[3.2.1]octan-3-yl)pyridazin-3-yl)-3-(2,5-dimethyl-2H-1,2,3-triazol-4-yl)-6,7-dihydro-5H-pyrrolo[3,4-b]pyridin-5-one]
  mrna remaining at 1 µM: 77%
  mrna remaining at 10 µM: 46%

## CN(c1ccc(N2Cc3ncc(-c4nn(C)nc4Cl)cc3C2=O)nn1)[C@H]1C[C@]2(C)CC[C@](C)(C1)N2 [Compound 589, 3-(5-chloro-2-methyl-2H-1,2,3-triazol-4-yl)-6-(6-(((1R,3s,5S)-1,5-dimethyl-8-azabicyclo[3.2.1]octan-3-yl)(methyl)amino)pyridazin-3-yl)-6,7-dihydro-5H-pyrrolo[3,4-b]pyridin-5-one]
  EC50: 349 nM
  mrna remaining at 1 µM: 20%
  mrna remaining at 10 µM: 11%

## Cc1nn(C)nc1-c1cnc2c(n1)C(=O)N(c1ccc(N(C)[C@H]3C[C@]4(C)CC[C@](C)(C3)N4)nn1)C2 [Compound 590, 3-(2,5-dimethyl-2H-1,2,3-triazol-4-yl)-6-(6-(((1R,3s,5S)-1,5-dimethyl-8-azabicyclo[3.2.1]octan-3-yl)(methyl)amino)pyridazin-3-yl)-6,7-dihydro-5H-pyrrolo[3,4-b]pyrazin-5-one]
  EC50: 569 nM
  mrna remaining at 1 µM: 24%
  mrna remaining at 10 µM: 9%

## Cc1cn(-c2cc(C#N)c3c(c2)C(=O)N(c2ccc(O[C@H]4C[C@]5(C)CC[C@](C)(C4)N5)nn2)C3)nn1 [Compound 591, 2-(6-(((1R,3s,5S)-1,5-dimethyl-8-azabicyclo[3.2.1]octan-3-yl)oxy)pyridazin-3-yl)-6-(4-methyl-1H-1,2,3-triazol-1-yl)-1-oxoisoindoline-4-carbonitrile]
  EC50: 634 nM
  mrna remaining at 1 µM: 109%
  mrna remaining at 10 µM: 91%

## Cc1nn(C)nc1-c1ncc2c(n1)C(=O)N(c1ccc(O[C@H]3C[C@]4(C)CC[C@](C)(C3)N4)nn1)C2 [Compound 592, 2-(2,5-dimethyl-2H-1,2,3-triazol-4-yl)-6-(6-(((1R,3s,5S)-1,5-dimethyl-8-azabicyclo[3.2.1]octan-3-yl)oxy)pyridazin-3-yl)-5,6-dihydro-7H-pyrrolo[3,4-d]pyrimidin-7-one]
  mrna remaining at 1 µM: 90%
  mrna remaining at 10 µM: 54%

## Cc1nn(C)cc1-c1cc2c(cn1)CN(c1ccc(OC3CC(C)(C)NC4(CCC4)C3)nn1)C2=O (stereo not shown) [Compound 593, 6-(1,3-dimethyl-1H-pyrazol-4-yl)-2-(6-((6,6-dimethyl-5-azaspiro[3.5]nonan-8-yl)oxy)pyridazin-3-yl)-2,3-dihydro-1H-pyrrolo[3,4-c]pyridin-1-one]
  mrna remaining at 1 µM: 105%
  mrna remaining at 10 µM: 34%

## CC(C)(O)Cn1cc(-c2cc3c(cn2)CN(c2ccc(O[C@H]4C[C@]5(C)CC[C@](C)(C4)N5)nn2)C3=O)cn1 [Compound 594, 2-(6-(((1R,3s,5S)-1,5-dimethyl-8-azabicyclo[3.2.1]octan-3-yl)oxy)pyridazin-3-yl)-6-(1-(2-hydroxy-2-methylpropyl)-1H-pyrazol-4-yl)-2,3-dihydro-1H-pyrrolo[3,4-c]pyridin-1-one]
  mrna remaining at 1 µM: 79%
  mrna remaining at 10 µM: 112%

## Cc1nn(C)cc1-c1cc2c(nn1)CN(c1ccc(O[C@H]3C[C@]4(C)CC[C@](C)(C3)N4)nn1)C2=O [Compound 595, 3-(1,3-dimethyl-1H-pyrazol-4-yl)-6-(6-(((1R,3s,5S)-1,5-dimethyl-8-azabicyclo[3.2.1]octan-3-yl)oxy)pyridazin-3-yl)-6,7-dihydro-5H-pyrrolo[3,4-c]pyridazin-5-one]
  mrna remaining at 1 µM: 91%
  mrna remaining at 10 µM: 18%

## Cc1nn(C)nc1-c1cc2c(nn1)CN(c1ccc(O[C@H]3C[C@]4(C)CC[C@](C)(C3)N4)nn1)C2=O [Compound 596, 3-(2,5-dimethyl-2H-1,2,3-triazol-4-yl)-6-(6-(((1R,3s,5S)-1,5-dimethyl-8-azabicyclo[3.2.1]octan-3-yl)oxy)pyridazin-3-yl)-6,7-dihydro-5H-pyrrolo[3,4-c]pyridazin-5-one]
  mrna remaining at 1 µM: 88%
  mrna remaining at 10 µM: 106%

## Cc1nn(C)cc1-c1cnc2c(c1)C(=O)N(c1ccc(OC3CC(C)(C)NC4(CCC4)C3)nn1)C2 (stereo not shown) [Compound 597, 3-(1,3-dimethyl-1H-pyrazol-4-yl)-6-(6-((6,6-dimethyl-5-azaspiro[3.5]nonan-8-yl)oxy)pyridazin-3-yl)-6,7-dihydro-5H-pyrrolo[3,4-b]pyridin-5-one]
  mrna remaining at 1 µM: 98%
  mrna remaining at 10 µM: 29%
